Test results taken from patent publication US10426772B2, “Use of ergot alkaloids as an anthelmintic agent” (priority 2016, dated 2019).
“Also recorded” adds a separate entry of the source. Read-outs that look alike come from different tables or passages of the source.

What was measured:
adult schistosomes = assay: Egg laying assay, adult schistosome pairs in vitro; type: cell-based, Schistosoma mansoni; details: serotonin 100 μM, forskolin 100 μM, LSD 10 μM, nuciferine 10 μM, ergotamine 5 μM (FIG. 19F); eggs per worm pair/day over five days
Source text: Female Swiss Webster mice infected with S. mansoni cerceria (NMRI strain) were sacrificed 49 days post infection by CO2 euthanasia. Adult schistosomes were recovered by perfusion with a solution of 0.85% sodium chloride+0.75% sodium citrate and dissection of the mesenteric vasculature. Harvested schistosomes were washed in RPMI 1640 Medium with GlutaMAX+5% heat inactivated FBS (Gibco) and Penicillin-Streptomycin (final concentration 100 units/mL, ThermoFisher cat #15140122).
For egg laying assays, adult schistosomes were transferred to 24 well plates the day after harvesting from mice (5 worm pairs in 2 mL media per well). Eggs were counted under a stereomicroscope daily, after which worms were transferred to a new well with fresh drug containing media. Egg counts were recorded for five days, and data processed as the mean number of eggs laid per worm pair/day. Measurements of egg dimensions were quantified using the “analyze>measure” function in ImageJ to record the length and width of individual eggs.

Sm.5HTR [1] = target: Sm.5HTR (Schistosoma mansoni, UniProt G4V5G4); type: cell-based; details: for activity at Sm.5HTR, in words: antagonist screen, FIG. 7
Sm.5HTR (Schistosoma mansoni, UniProt G4V5G4), sequence (G4V5G4 entry or part of it): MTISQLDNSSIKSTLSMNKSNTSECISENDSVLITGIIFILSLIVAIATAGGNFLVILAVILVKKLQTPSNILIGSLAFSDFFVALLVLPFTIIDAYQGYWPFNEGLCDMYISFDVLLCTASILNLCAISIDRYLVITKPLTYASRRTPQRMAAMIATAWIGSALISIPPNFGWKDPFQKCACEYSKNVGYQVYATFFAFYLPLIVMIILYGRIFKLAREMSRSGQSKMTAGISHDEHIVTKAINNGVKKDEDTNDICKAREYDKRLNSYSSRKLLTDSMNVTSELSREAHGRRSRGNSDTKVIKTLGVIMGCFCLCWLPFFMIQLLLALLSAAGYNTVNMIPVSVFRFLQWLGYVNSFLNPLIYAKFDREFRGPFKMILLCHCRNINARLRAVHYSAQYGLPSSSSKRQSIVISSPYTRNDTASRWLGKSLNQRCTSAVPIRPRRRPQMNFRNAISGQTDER
Experimental: (§1) HEK293 cells (ATCC CRL-1573.3) were cultured in DMEM supplemented with 10% fetal bovine serum (FBS), penicillin (100 units/mL), streptomycin (100 μg/mL), and L-glutamine (290 μg/mL). Cells were transiently transfected (ViaFect, Promega) as per the manufacturer's protocol at a density of 2×10^6 cells per T-25 cell-culture flask. Cells were transfected with plasmids encoding GloSensor (Promega) and either Sm.5HTR, (Smp_126730, GenBank accession number KF444051.1) or Sm.5HTRL (KX150867), both GPCRs being codon optimized for mammalian expression, or Hs.5HT7a (GenBank accession number NM_000872.4, R&D Systems) subcloned into pCS2(−). Cell culture reagents were from Invitrogen. Epitope tagged constructs were used to verify expression, and untagged constructs used for all luminescence assays.
(§2) For assays performed on adherent cells, HEK-293 cells were transferred one day post transfection to 96 well, solid white plates (Corning, cat #3917) coated with 0.01% poly-L-lysine (Sigma Aldrich) at a density of 5×10^4 cells/well in DMEM supplemented with 1% dialyzed FBS (Gibco). After overnight culture (37° C./5% CO2), media was decanted and replaced with 100 μL/well HBSS supplemented with 0.1% BSA, 20 mM HEPES (pH 7.4) and GloSensor™ reagent. Plates were allowed to equilibrate at room temperature for two hours prior to performing luminescence assays (GloMax-Multi Detection System plate reader, Promega). Conditions for individual assays were described as per figure legends. The standard assay to detect changes in cAMP utilized the F22 sensor in media supplemented with IBMX (200 μM). Ligands were added at a concentration of 20× per well for experiments (i.e., 5 μl of drug solution added to 100 μL of cells). […] For the resazurin reduction assay for cellular viability, cells were incubated with resazurin (final concentration, 10 μM) and tested ligands with fluorescence measurements (560 nm excitation/590 nm emission) made at 1.5 hours intervals.
(§3) The protocol for screening is shown schematically in FIG. 5A. HEK293 cells transiently transfected with either the human 5HT7 receptor (Hs.5HT7R) or the schistosome receptor (Sm.5HTR) were exposed to test ligands in a 96-well plate format. […] Luminescence was then read at a fixed time point (t=60 minutes, FIG. 5A). Hits were assigned as compounds that evoked a ≥50% decrease in luminescence output at the fixed time sampling point (FIG. 5B).

Sm.5HTR [2] = target: Sm.5HTR (Schistosoma mansoni, UniProt A0A173FEI8); assay: cell-based
Sm.5HTR (Schistosoma mansoni, UniProt A0A173FEI8), sequence (A0A173FEI8 entry or part of it): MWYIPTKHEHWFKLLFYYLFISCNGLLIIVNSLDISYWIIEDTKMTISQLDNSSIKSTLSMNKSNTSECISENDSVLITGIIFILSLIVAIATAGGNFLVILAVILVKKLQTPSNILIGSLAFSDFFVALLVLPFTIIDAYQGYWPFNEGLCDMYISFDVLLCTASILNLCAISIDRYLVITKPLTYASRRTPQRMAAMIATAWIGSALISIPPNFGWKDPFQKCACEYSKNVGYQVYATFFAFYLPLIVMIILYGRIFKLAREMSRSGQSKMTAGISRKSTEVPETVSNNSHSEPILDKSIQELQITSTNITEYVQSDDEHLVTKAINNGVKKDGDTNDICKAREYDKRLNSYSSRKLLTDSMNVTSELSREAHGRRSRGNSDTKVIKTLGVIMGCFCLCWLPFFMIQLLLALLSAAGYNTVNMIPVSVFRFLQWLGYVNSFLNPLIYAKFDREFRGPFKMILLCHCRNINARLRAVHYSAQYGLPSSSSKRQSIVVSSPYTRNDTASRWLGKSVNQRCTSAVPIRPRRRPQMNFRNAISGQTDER
Experimental: HEK293 cells (ATCC CRL-1573.3) were cultured in growth media consisting of DMEM supplemented with GlutaMAX (Gibco cat #10566016)+10% heat inactivated fetal bovine serum and penicillin-streptomycin (100 units/mL, ThermoFisher). Stable cell lines for the pGloSensor-22F cAMP Plasmid (Promega) and schistosome 5HTRs in pcDNA3.1(−) were selected with hygromycin (200 μg/mL) and G418 (400 μg/mL). The correct identity of each stably expressed sequence was verified by isolating total RNA from each stable line (TRIzol Reagent, Ambion) and amplifying the sequence of interest with gene specific primers flanking the 5′ and 3′ regions of the cds (SuperScript® III One-Step RT-PCR System, Invitrogen). PCR products were ligated into a TA cloning vector (pGEM-T Easy, Promega) and sequenced.
HEK293 lines stably expressing both the 22F cAMP sensor and Sm.5HTR were cultured in growth media supplemented with 10% dialyzed FRS. For cAMP assays in 96 well format, cells cultured in T-75 flasks were trypsinized (TrypLE Express, Gibco) and plated in solid white 96 well plates (Costar cat #3917) the day prior to assay at a density of 2.5×10^4 cells/well. The following day media was removed and replaced with assay buffer consisting of HBSS buffered with HEPES (20 mM, pH 7.4)+BSA (0.1% w/v) and D-luciferin sodium salt (1 mg/mL, Gold Biotechnology). Plates were equilibrated at room temperature for 1 hour, at which point 3-Isobutyl-1-methylxanthine (IBMX 200 μM, Sigma Aldrich) was added. Plates were equilibrated a further 30 minutes prior to test compound addition. […] Readings performed in 384 well format were modified so that cells were assayed in suspension. Cells were grown to 70% confluence in T-75 flasks, trypsinized and pelleted (300 RCF×5 minutes). Media was removed and cells were resuspended in 25 mL assay buffer supplemented with IBMX (200 μM). A 96 channel semi-automated pipet (Eppendorf epMotion 96) delivered 55 μL of cell suspension per well (5000 cells/well) into solid white 384 plates (Corning 3574).

Hs.5HT7R = target: T1, Hs.5HT7R (Homo sapiens, UniProt P34969); assay: GloSensor cAMP assay, HEK293 cells transiently transfected with Hs.5HT7R; type: cell-based; details: FIG. 7
T1 construct: host or cells: HEK293 (ATCC CRL-1573.3), transient, pCS2(−), co-transfected with GloSensor
T1 sequence (P34969 1-445 isoform P34969-2): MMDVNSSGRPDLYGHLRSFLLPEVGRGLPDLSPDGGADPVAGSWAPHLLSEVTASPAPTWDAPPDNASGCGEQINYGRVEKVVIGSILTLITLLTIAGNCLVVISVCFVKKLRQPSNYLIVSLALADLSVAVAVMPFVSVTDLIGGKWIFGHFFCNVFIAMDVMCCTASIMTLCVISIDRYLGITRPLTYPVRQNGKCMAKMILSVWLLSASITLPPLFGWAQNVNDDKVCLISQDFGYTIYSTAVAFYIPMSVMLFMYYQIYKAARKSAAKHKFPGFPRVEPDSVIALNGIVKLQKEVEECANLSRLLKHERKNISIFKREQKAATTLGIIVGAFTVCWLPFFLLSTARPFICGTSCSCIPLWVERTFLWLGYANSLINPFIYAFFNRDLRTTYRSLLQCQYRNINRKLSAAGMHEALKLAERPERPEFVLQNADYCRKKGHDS
Experimental: as §1, §2, §3

Sm.5HTRL = Sm.5HTRL (Schistosoma mansoni, UniProt A0A173FEI8); assay: GloSensor cAMP assay, HEK293 cells transiently transfected with Sm.5HTRL; type: cell-based; details: antagonists 10 μM; 5-HT EC80 dose 0.8 μM (FIG. 8)
Sm.5HTRL, sequence (A0A173FEI8 entry or part of it): as the sequence (A0A173FEI8 entry or part of it) above
Experimental: as §1, §2

[3] = antagonism of 5-HT evoked cAMP, FIGS. 7, 12, 13

Structure (SMILES): CCN(CC)C(=O)[C@@H]1C=C2c3cccc4[nH]cc(c34)C[C@H]2N(C)C1 [LSD, lysergic acid diethylamide]
- decrease of egg laying (adult schistosomes): no effect
- inhibition of 5-HT evoked cAMP generation at higher concentrations (Sm.5HTR [1]; >10 μM): almost complete inhibition
- agonist efficacy at Sm.5HTR, in words (Sm.5HTR [1]; FIG. 10A): no efficacy
- Kb (Sm.5HTR [1]; antagonism of 5-HT evoked cAMP accumulation, FIG. 10F, read-out: affinity constants (KB), Schild regression analysis): 629 nM
- nature of antagonism: right-shift in the 5-HT dose-response relationship (Sm.5HTR [1]; increasing doses of ligand, FIGS. 10B-D): competitive antagonism
- EC50 (Sm.5HTR [2]): 250 ± 150 nM
- Emax (Sm.5HTR [2]; HEK293, read-out: Sm.5HTR Emax): 40 ± 26%

Structure (SMILES): CC1CCN(CC[C@H]2CCCN2S(=O)(=O)c2cccc(O)c2)CC1 [SB269970]
- activity at Sm.5HTR, in words (Sm.5HTR [1]): modest effects on Sm.5HTR
- activity at Sm.5HTR, in words (Sm.5HTR [1]; listed as SB 269970): completely lacked activity at Sm.5HTR

Structure (SMILES): O=S(=O)(c1ccccc1)c1cnc2c(N3CCNCC3)cccc2c1 [SB742457]
- inhibition of Hs.5HT7R, in words (Hs.5HT7R): potent inhibitors of Hs.5HT7R
- activity at Sm.5HTR, in words (Sm.5HTR [1]): completely lacked activity at Sm.5HTR; also recorded: modest effects on Sm.5HTR

Structure (SMILES): COc1cc2nc(N(C)CCCNC(=O)C3CCCO3)nc(N)c2cc1OC (stereo not shown) [alfuzosin]
- inhibition of 5-HT evoked cAMP generation through Sm.5HTRL (Sm.5HTRL): inhibited 5-HT evoked cAMP generation through Sm.5HTRL
- selectivity Sm.5HTR versus Hs.5HT7R (IC50 (Hs.5HT7R)/IC50 (Sm.5HTR)), in words (Sm.5HTR [1]; [3]): clear selectivity for Sm.5HTR

Structure (SMILES): CCN1CCCC1CNC(=O)c1cc(S(=O)(=O)CC)c(N)cc1OC (stereo not shown) [amisulpiride]
- activity at Sm.5HTR, in words (Sm.5HTR [1]): modest effects on Sm.5HTR

Structure (SMILES): CNCC[C@@H](Oc1ccccc1C)c1ccccc1 [atomoxetine]
- inhibition of 5-HT evoked cAMP generation through Sm.5HTRL (Sm.5HTRL): inhibited 5-HT evoked cAMP generation through Sm.5HTRL
- selectivity Sm.5HTR versus Hs.5HT7R (IC50 (Hs.5HT7R)/IC50 (Sm.5HTR)), in words (Sm.5HTR [1]): clear selectivity for Sm.5HTR; also recorded: preferential selectivity toward Sm.5HTR

Structure (SMILES): COc1ccc2cc3[n+](cc2c1OC)CCc1cc2c(cc1-3)OCO2 [berberine]
- selectivity Sm.5HTR versus Hs.5HT7R (IC50 (Hs.5HT7R)/IC50 (Sm.5HTR)), in words (Sm.5HTR [1]; [3]): decreased potency and selectivity for Sm.5HTR

Structure (SMILES): CC(C)[C@@]1(NC(=O)[C@@H]2C[C@@H]3c4cccc5[nH]cc(c45)C[C@H]3N(C)C2)O[C@@]2(O)[C@@H]3CCCN3C(=O)[C@H](Cc3ccccc3)N2C1=O [dihydroergocristine]
- antagonist activity at Sm.5HTR, in words (Sm.5HTR [2]; FIG. 18B): is an antagonist
- Emax (Sm.5HTR [2]; HEK293, agonist read, 45 minutes, read-out: Sm.5HTR Emax): 22 ± 2%

Structure (SMILES): CN1C[C@H](C(=O)N[C@]2(C)O[C@@]3(O)[C@@H]4CCCN4C(=O)[C@H](Cc4ccccc4)N3C2=O)C[C@@H]2c3cccc4[nH]cc(c34)C[C@H]21 [dihydroergotamine]
- agonist efficacy at Sm.5HTR, in words (Sm.5HTR [1]; FIG. 10A): partial agonism
- EC50 (Sm.5HTR [1]; FIG. 10A, read-out: EC50, agonist activity at Sm.5HTR): 315 nM
- Emax (Sm.5HTR [2]; HEK293, read-out: Sm.5HTR Emax): 103 ± 11%
